Laboratory results reported in publication PMC12297955, “Comparative Study: Biguanide-, Sulfonamide-, and Natural Agent-Based Interventions in an In Vivo Experimental Diabetes Model” (Medicina, 2025).
Where “and” joins values, the source holds several entries; their conditions need not be identical. Equal entries are not always repeated.

How the values were obtained:
[1] = tested on: alloxan-induced diabetic rats; experiment: Blood glucose level in alloxan-induced diabetes model; assay type: in vivo, Wistar female rats; conditions: mean ± SD; for Blood glucose (BG) level, mean: alloxan-induced diabetic rats, oral gavage daily for 5 weeks, metformin 300 mg/kg/day, S 150 mg/kg/day, sage extract 150 mg/kg/day; for Average blood glucose reduction (pre- vs post-treatment): end of week 3 vs end of week 8, oral daily 5 weeks, metformin 300, S 150, sage 150 mg/kg/day
Method: The in vivo experiment was conducted using Wistar female rats, obtained through the “Grigore T. Popa” University of Medicine and Pharmacy (UMF) Iași, from the Cantacuzino Institute in Bucharest, Romania. Throughout the experimental period, the animals were housed at the CEMEX biobase, within the UMF “Grigore T. Popa” Iași. […] Female rats were selected in alignment with the broader research objective focused on diabetes-induced alterations of the female reproductive system.
Following a 7-day acclimatization period, diabetes was induced in groups 2–6 by a single intraperitoneal injection of alloxan at a dose of 150 mg/kg body weight.
Blood glucose (BG) was assessed 5 days post-administration using peripheral tail vein blood. A threshold of 200 mg/dL was used to confirm severe hyperglycemia. […] The end of week 3 thus marked the point of confirmed diabetes and the onset of pharmacological interventions. […] The full experimental timeline extended over 8 weeks.
To minimize potential confounders, all experimental procedures—including compound administration and blood glucose level measurements— were performed at the same time of day for all animals. Blood glucose (BG) levels were monitored weekly using a portable glucometer (tail vein blood).
To quantify the hypoglycemic effect of the applied treatments, the percentage decrease in blood glucose was calculated based on pre- and post-treatment values using the following formula: Absolute decrease in blood glucose %=blood glucose (pre−treatment)−blood glucose (post−treatment)/blood glucose (pre−treatment)×100

[2] = design: method as in earlier work; conditions: rats, ref 42 (Choi et al. 2006); cited from earlier work
[3] = Plasma steady-state concentration by HPLC and volume of distribution; conditions: female, Wistar, rat, oral, 300 mg/kg/day, rats, oral daily dosing 5 weeks, HPLC, metformin 300 mg/kg/day, S 150 mg/kg/day
Method: At the end of the experimental period, blood samples were collected from the retro-orbital plexus under ketamine anesthesia (75 mg/kg body weight). Samples were collected into EDTA-coated tubes and stored at −20 °C until biochemical analyses were performed. Finally, the animals were humanely euthanized using Thiopental 0.01%.
Extraction of the target compounds from whole blood samples was performed using a liquid–liquid extraction method, with dichloromethane as the organic solvent (sample: solvent ratio 1:2). The extraction was carried out under acidic conditions (pH 3, using 4% acetic acid). Following centrifugation, the organic phase was evaporated under a stream of high-purity nitrogen gas at 40 °C (Thermo Scientific, Bremen, Germany). The resulting dry residue was reconstituted in 500 µL of 10% methanol in water.
Separation was achieved on a 150-4.6 LiChrospher®RP-18, 5 µm, column (Merck, Darmstadt, Germany). […] The flow rate was set to 1.0 mL/min, and the total run time for each analysis was 30 min.
The volume of distribution at steady state (Vd) was calculated using the following formula: Vd=D/Css(L) where D represents the administered dose, calculated individually based on each animal’s body weight (mg/kg), and Css is the steady-state plasma concentration (mg/L).

Compound: CN(C)C(=N)N=C(N)N [metformin]
- Blood glucose (BG) level, mean [1]: 224.8 ± 192.78 mg/dL
- Average blood glucose reduction (pre- vs post-treatment) [1]: 36.4% and 36.46 ± 32.5% and 36.46%
- Fraction of oral dose subject to gastrointestinal and hepatic first-pass effects [2]: approximately 65%
- concentration at 5 weeks ([3]; Average plasma concentration (steady state), mean ± SD): 5320 ± 1580 ng/mL
- concentration at 5 weeks ([3]; Plasma concentration, range): 3170 to 7540 ng/mL

Compound: N-(diaminomethylene)-4-methylbenzenesulfonamide
- Blood glucose (BG) level, mean [1]: 236.0 ± 94.70 mg/dL
- Average blood glucose reduction (pre- vs post-treatment) [1]: 40.6% and 40.95 ± 15.94%
